Some results are limits rather than exact numbers.

By IC50 is commonly meant the midpoint of a concentration-inhibition curve.

The target of data set [1] is T1, HPEPT1 (Homo sapiens, UniProt P46059).
T1 sequence (P46059 1-708): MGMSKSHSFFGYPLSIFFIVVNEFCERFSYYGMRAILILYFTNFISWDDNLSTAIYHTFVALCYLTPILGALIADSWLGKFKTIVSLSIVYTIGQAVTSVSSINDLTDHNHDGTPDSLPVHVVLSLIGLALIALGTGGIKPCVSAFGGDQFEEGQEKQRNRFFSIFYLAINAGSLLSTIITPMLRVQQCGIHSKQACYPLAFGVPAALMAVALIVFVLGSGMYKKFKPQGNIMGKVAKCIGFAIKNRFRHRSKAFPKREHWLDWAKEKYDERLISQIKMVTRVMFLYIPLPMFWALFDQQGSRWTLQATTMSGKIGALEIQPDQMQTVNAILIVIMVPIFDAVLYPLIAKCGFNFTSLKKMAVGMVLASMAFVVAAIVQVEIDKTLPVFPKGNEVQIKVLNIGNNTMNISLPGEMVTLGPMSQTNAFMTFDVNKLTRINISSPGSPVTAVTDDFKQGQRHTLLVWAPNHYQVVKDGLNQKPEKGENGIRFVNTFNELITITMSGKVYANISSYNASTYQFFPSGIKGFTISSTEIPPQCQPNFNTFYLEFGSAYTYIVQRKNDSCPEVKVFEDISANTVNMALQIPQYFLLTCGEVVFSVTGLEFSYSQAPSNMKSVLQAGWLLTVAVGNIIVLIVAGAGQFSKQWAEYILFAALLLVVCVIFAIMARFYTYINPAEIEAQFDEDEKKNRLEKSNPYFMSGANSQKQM
The settings on record: for Uptake (hPepT1): HeLa cells overexpressing HPEPT1, 50 micromolar, pH 6.0, 45 minutes; for hPepT1/Control: ratio of uptake in hPepT1 cells versus control cells.

Assay in data set [2]: not given
This is another data set of the same source.

Assay in data set [3]: not given
The source holds these as a separate data set.

Data set [4] concerns the target T1, HPEPT1. Description: Inhibition of radiolabelled Gly-Sar uptake in DC5 cells overexpressing HPEPT1. In kind it is cell-based. To be noted: inhibition of Gly-Sar uptake, DC5 cells overexpressing HPEPT1, 10 min, 37° C.; read-out: DC5 IC50. The arrangement: expressed in transfected cells; host or cells: HeLa cells overexpressing hPEPT1 (called 'HPEPT1 infected cells'). As for the experimental part: Amino acid prodrugs are tested for their interaction with the dipeptide transporter, HPEPT1, using tissue culture cells that are engineered to overexpress HPEPT1. In this example, the cells that overexpress HPEPT1, termed DC5, are a human meduloblastoma cell line that is stably transfected with a eukaryotic expression vector encoding HPEPT1. […] DC5 cells are plated at a density of 12,000 cells/well in 96-well tissue culture plates and allowed to grow for 2 days. The cells are washed once with 200 microliters of uptake buffer and aspirated. The plates are cooled to 4° C. and 25 ul of uptake buffer containing 125 nanomoles Gly-Sar (at a specific activity of 1 microcurie/micromole) is added. The uptake buffer also contains the prodrugs to be tested at concentrations ranging from 10 micromolar to 20 millimolar. The assay is initiated by placing the plate in a shaking water bath at 37° C. and is terminated after 10 min by rapid washing with multiple changes of 4° C. phosphate buffered saline (PBS). The radioactive Gly-Sar peptide that is transported by the hpept1 is extracted from the cell layer with 200 ul of a one to one mixture of methanol and water and is counted in 4 ml of CytoScint ES™ scintillation cocktail (ICN). The data are plotted as % Gly-Sar uptake of control (no competitive substrate) versus the competitive substrate concentration. […] Typically, values that are below 10 mM indicate that the drug interacts with transporter.

For `Nc1ccn([C@@H]2O[C@H](COC(=O)[C@H](N)Cc3ccccc3)[C@@H](OC(=O)[C@H](N)Cc3ccccc3)C2(F)F)c(=O)n1` [3′,5′-di-O-D-phenylalanyl Gemcitabine], the “t1/2 Buffer pH 7.4” value was 28.0 ± 0.6 min. The “Uptake (hPepT1)” value at HPEPT1 [1] is reported as “Not detected”. Further, the “t1/2 Human plasma” value in data set [2] is recorded as 2.4 ± 0.2 min. In data set [3], the “t1/2 Caco-2 cell homogenates” value was found to be 8.3 ± 0.6 min.

As for `CC(C)[C@@H](N)C(=O)OC[C@H]1O[C@@H](n2ccc(N)nc2=O)C(F)(F)[C@@H]1OC(=O)[C@H](N)C(C)C` [3′,5′-di-O-D-valyl gemcitabine], the “t1/2 Buffer pH 7.4” value turned out to be 52.0 ± 1.1 min. In addition, at HPEPT1 [1], the “Uptake (hPepT1)” value is 1.11 ± 0.08 nmole/mg/45 min and the hPepT1/Control came to 1.13. For the same molecule, the “t1/2 Human plasma” value in data set [2] is 2.1 ± 0.1 min. Further, the “t1/2 Caco-2 cell homogenates” value in data set [3] came out at 10.3 ± 0.7 min.

In the case of `CC[C@H](C)[C@H](N)C(=O)OC[C@H]1O[C@@H](n2ccc(N)nc2=O)C(F)(F)[C@@H]1OC(=O)[C@@H](N)[C@@H](C)CC` [3′,5′-di-O-L-isoleucyl gemcitabine], the “t1/2 Buffer pH 7.4” value is 61.0 ± 0.5 min. At HPEPT1 [1], the “Uptake (hPepT1)” value is listed as 1.16 ± 0.13 nmole/mg/45 min and the hPepT1/Control was 1.06. In addition, the “t1/2 Human plasma” value in data set [2] amounted to 2.64 ± 0.0 min. Also, the “t1/2 Caco-2 cell homogenates” value in data set [3] is reported as 2.1 ± 0.0 min. Also, the IC50 at HPEPT1 [4] was 820 µM.

As for `Nc1ccn([C@@H]2O[C@H](COC(=O)[C@@H](N)Cc3ccccc3)[C@@H](OC(=O)[C@@H](N)Cc3ccccc3)C2(F)F)c(=O)n1` [3′,5′-di-O-L-phenylalanyl gemcitabine], the “t1/2 Buffer pH 7.4” value is recorded as 38.0 ± 0.2 min. Also, the “Uptake (hPepT1)” value on HPEPT1 [1] is listed as “Not detected”. Also, the “t1/2 Human plasma” value in data set [2] is given as 0.7 ± 0.0 min. For the same molecule, the “t1/2 Caco-2 cell homogenates” value in data set [3] is 0.6 ± 0.0 min.

`CC(C)[C@H](N)C(=O)OC[C@H]1O[C@@H](n2ccc(N)nc2=O)C(F)(F)[C@@H]1OC(=O)[C@@H](N)C(C)C` [3′,5′-di-O-L-valyl Gemcitabine]: the “t1/2 Buffer pH 7.4” value came out at 55.0 ± 2.7 min. In addition, at HPEPT1 [1], the “Uptake (hPepT1)” value was determined as 1.76 ± 0.09 nmole/mg/45 min and the hPepT1/Control is 1.15. The “t1/2 Human plasma” value in data set [2] is given as 2.0 ± 0.1 min. The “t1/2 Caco-2 cell homogenates” value in data set [3] worked out at 0.9 ± 0.0 min. Further, the IC50 at HPEPT1 [4] was found to be 1720 µM.

Consider `O=C(OCC1OC(n2cc(F)c(=O)[nH]c2=O)CC1OC(=O)C1CCCN1)C1CCCN1` (stereo not shown) [3′,5′-di-O-prolyl-Floxuridine], for which, on HPEPT1 [4], the IC50 was more than 20000 µM.

With `Nc1ccn([C@@H]2O[C@H](CO)[C@@H](OC(=O)[C@H](N)Cc3ccccc3)C2(F)F)c(=O)n1` [3′-O-D-phenylalanyl Gemcitabine], the “t1/2 Buffer pH 7.4” value is recorded as 39.0 ± 0.7 min. Besides, on HPEPT1 [1], the “Uptake (hPepT1)” value is listed as “Not detected”. For the same molecule, the “t1/2 Human plasma” value in data set [2] is listed as 7.7 ± 0.2 min. Further, the “t1/2 Caco-2 cell homogenates” value in data set [3] is listed as 8.8 ± 0.1 min.

Take `CC(C)[C@@H](N)C(=O)O[C@@H]1[C@@H](CO)O[C@@H](n2ccc(N)nc2=O)C1(F)F` [3′-O-D-valyl Gemcitabine]: the “t1/2 Buffer pH 7.4” value was found to be 74.0 ± 1.2 min. Moreover, at HPEPT1 [1], the “Uptake (hPepT1)” value worked out at 0.81 ± 0.02 nmole/mg/45 min and the hPepT1/Control was 1.06. Further, the “t1/2 Human plasma” value in data set [2] amounted to 5.99 ± 0.0 min. Moreover, the “t1/2 Caco-2 cell homogenates” value in data set [3] stood at 23.2 ± 0.2 min.

Turning to `CC[C@H](C)[C@H](N)C(=O)O[C@@H]1[C@@H](CO)O[C@@H](n2ccc(N)nc2=O)C1(F)F` [3′-O-L-isoleucyl gemcitabine], the “t1/2 Buffer pH 7.4” value amounted to 66.0 ± 0.21 min. In addition, at HPEPT1 [1], the “Uptake (hPepT1)” value turned out to be 1.03 ± 0.11 nmole/mg/45 min and the hPepT1/Control amounted to 1.09. Also, in data set [2], the “t1/2 Human plasma” value was determined as 8.0 ± 0.1 min. The “t1/2 Caco-2 cell homogenates” value in data set [3] is recorded as 10.6 ± 0.3 min. Further, the IC50 at HPEPT1 [4] turned out to be 2180 µM.

Consider `Nc1ccn([C@@H]2O[C@H](CO)[C@@H](OC(=O)[C@@H](N)Cc3ccccc3)C2(F)F)c(=O)n1` [3′-O-L-phenylalanyl Gemcitabine], for which the “t1/2 Buffer pH 7.4” value was 39.0 ± 0.12 min. Moreover, the “Uptake (hPepT1)” value on HPEPT1 [1] is “Not detected”. For the same molecule, the “t1/2 Human plasma” value in data set [2] came out at 5.7 ± 0.1 min. Further, the “t1/2 Caco-2 cell homogenates” value in data set [3] worked out at 0.8 ± 0.0 min.

As for `CC(C)[C@H](N)C(=O)O[C@@H]1[C@@H](CO)O[C@@H](n2ccc(N)nc2=O)C1(F)F` [3′-O-L-valyl Gemcitabine], the “t1/2 Buffer pH 7.4” value was determined as 64.0 ± 1.4 min. At HPEPT1 [1], the “Uptake (hPepT1)” value was 1.12 ± 0.07 nmole/mg/45 min and the hPepT1/Control is reported as 1.11. For the same molecule, the “t1/2 Human plasma” value in data set [2] is recorded as 5.4 ± 0.1 min. For the same molecule, the “t1/2 Caco-2 cell homogenates” value in data set [3] came out at 5.0 ± 0.1 min. Moreover, the IC50 on HPEPT1 [4] stood at 3690 µM.

On to `O=C(OC1CC(n2cc(F)c(=O)[nH]c2=O)OC1CO)C1CCCN1` (stereo not shown) [3′-O-prolyl-Floxuridine], for which the IC50 at HPEPT1 [4] is more than 20000 µM.

`Nc1ccn([C@@H]2O[C@H](COC(=O)[C@H](N)Cc3ccccc3)[C@@H](O)C2(F)F)c(=O)n1` [5′-O-D-phenylalanyl Gemcitabine]: the “t1/2 Buffer pH 7.4” value is given as 204.0 ± 3.5 min. For the same molecule, at HPEPT1 [1], the “Uptake (hPepT1)” value is recorded as “Not detected”. The “t1/2 Human plasma” value in data set [2] is listed as 34.8 ± 1.1 min. In data set [3], the “t1/2 Caco-2 cell homogenates” value was 11.4 ± 0.2 min.

On to `CC(C)[C@@H](N)C(=O)OC[C@H]1O[C@@H](n2ccc(N)nc2=O)C(F)(F)[C@@H]1O` [5′-O-D-valyl Gemcitabine], for which the “t1/2 Buffer pH 7.4” value stood at 424.0 ± 1.2 min. In addition, on HPEPT1 [1], the “Uptake (hPepT1)” value is listed as 1.14 ± 0.04 nmole/mg/45 min and the hPepT1/Control came out at 1.58. For the same molecule, the “t1/2 Human plasma” value in data set [2] is given as 58.1 ± 2.1 min. For the same molecule, the “t1/2 Caco-2 cell homogenates” value in data set [3] came to 37.4 ± 1.4 min.

On to `CC[C@H](C)[C@H](N)C(=O)OC[C@H]1O[C@@H](n2ccc(N)nc2=O)C(F)(F)[C@@H]1O` [5′-O-L-isoleucyl gemcitabine], for which the “t1/2 Buffer pH 7.4” value was 452.0 ± 9.6 min. On HPEPT1 [1], the “Uptake (hPepT1)” value came to 1.22 ± 0.05 nmole/mg/45 min and the hPepT1/Control came out at 5.64. Also, in data set [2], the “t1/2 Human plasma” value is on record as 99.2 ± 1.6 min. Further, in data set [3], the “t1/2 Caco-2 cell homogenates” value is 75.3 ± 2.8 min. The half-inhibitory concentration (IC50) on HPEPT1 [4] came out at 610 µM.

Consider `Nc1ccn([C@@H]2O[C@H](COC(=O)[C@@H](N)Cc3ccccc3)[C@@H](O)C2(F)F)c(=O)n1` [5′-O-L-phenylalanyl Gemcitabine], for which the “t1/2 Buffer pH 7.4” value worked out at 200.0 ± 1.9 min. In addition, on HPEPT1 [1], the “Uptake (hPepT1)” value is recorded as “Not detected”. Moreover, the “t1/2 Human plasma” value in data set [2] is given as 8.4 ± 0.2 min. Further, the “t1/2 Caco-2 cell homogenates” value in data set [3] is reported as 3.2 ± 0.1 min.

As to `CC(C)[C@H](N)C(=O)OC[C@H]1O[C@@H](n2ccc(N)nc2=O)C(F)(F)[C@@H]1O` [5′-O-L-valyl Gemcitabine], the “t1/2 Buffer pH 7.4” value is on record as 416.0 ± 8.5 min. Further, at HPEPT1 [1], the “Uptake (hPepT1)” value worked out at 2.14 ± 0.05 nmole/mg/45 min and the hPepT1/Control is recorded as 11.25. Further, in data set [2], the “t1/2 Human plasma” value is recorded as 56.4 ± 2.9 min. The “t1/2 Caco-2 cell homogenates” value in data set [3] is given as 7.1 ± 0.6 min. For the same molecule, at HPEPT1 [4], the IC50 is 700 µM.

`O=C(OCC1OC(n2cc(F)c(=O)[nH]c2=O)CC1O)C1CCCN1` (stereo not shown) [5′-O-prolyl-Floxuridine]: the IC50 on HPEPT1 [4] is more than 20000 µM.

`Nc1nc2c(ncn2COCCO)c(=O)[nH]1` [Acyclovir, reference compound]: the IC50 at HPEPT1 [4] was more than 25000 µM.

On to `O=c1[nH]c(=O)n([C@H]2C[C@H](O)[C@@H](CO)O2)cc1F` [Floxuridine, reference compound], for which the IC50 at HPEPT1 [4] was more than 20000 µM.

Consider `Nc1nc(O)c2ncn(COC(CO)CO)c2n1` [Ganciclovir, reference compound], for which, at HPEPT1 [4], the IC50 is more than 20000 µM.

With `Nc1ccn([C@@H]2O[C@H](CO)[C@@H](O)C2(F)F)c(=O)n1` [Gemcitabine, reference compound], the IC50 at HPEPT1 [4] was more than 20000 µM.
